Results on eight compounds are retold here after ChEMBL document CHEMBL4265877, “Optimization of permeability in a series of pyrrolotriazine inhibitors of IRAK4” (Bioorg Med Chem, 2018).

Molecules are shown by their SMILES.

Data set [1] can be described thus: Lipophilicity, log D of the compound at pH 7.4 by shake flask method. In kind it is physicochemical. As to conditions: buffer.
The nature of data set [2]: Intrinsic clearance in human microsomes assessed per mg protein. It counts as ADME, Microsome. As to conditions: read-out: CLH.
Data set [3] in a line: Apparent permeability from apical to basolateral side in human Caco2 cells. It counts as ADME, cell-based. The note with it: Caco-2.

With `CN(C)[C@H]1CC[C@H](Nc2ncnc3cscc23)CC1`, in data set [1], the logD turned out to be 0.3. For the same compound, the microsomal CLint in data set [2] was 39 µL/min/mg.
`CN(C)[C@H]1CC[C@H](Nc2ncnc3ccoc23)CC1` displayed a pH-dependent lipophilicity (logD) in data set [1] of -0.7.
In data set [1], `CN(C)[C@H]1CC[C@H](Nc2ncnc3ccsc23)CC1` gave a pH-dependent lipophilicity (logD) of -0.2.
In data set [1], `CN(C)[C@H]1CC[C@H](Nc2ncnc3cc[nH]c23)CC1` had a pH-dependent lipophilicity (logD) of -0.3. Moreover, in data set [2], the microsomal CLint was under 3 µL/min/mg.
`Cc1ccn2ncnc(N[C@H]3CC[C@H](N(C)C)CC3)c12`: the Papp A→B in data set [3] was found to be 36 ×10⁻⁶ cm/s. In data set [1], this compound displayed a logD of 0.2.
Compound `Cn1ccc2ncnc(N[C@H]3CC[C@H](N(C)C)CC3)c21` returned a logD in data set [1] of -0.8.
Compound `CN(C)[C@H]1CC[C@H](Nc2ncnn3cccc23)CC1` had a logD in data set [1] of 0. Also, the microsomal CLint in data set [2] was under 3 µL/min/mg.
The compound `CN(C)[C@H]1CC[C@H](Nc2ncnc3ccn(C4CCOCC4)c23)CC1` gave a pH-dependent lipophilicity (logD) in data set [1] of -0.6.
